The numbers were not newly measured in patent US10577339B2, “Method for manufacturing furan-2,5-dicarboxylic acid (FDCA) from a salt solution” (PURAC BIOCHEM BV, priority 2015, dated 2020), which cites them from elsewhere.

The conditions of this series: at 40° C.

As to `O=S(=O)([O-])[O-].[Na+].[Na+]` [Na2SO4, sodium sulphate], the saturation concentration was 32.8%.
